Like-named read-outs stand apart in the source and are kept apart here.
Tests used:
HEP-G2 cells = assay: cells; details: for EC50 / Emax / EC (Emax): Homo sapiens; for EC50: HepG2, 3 h; for HEP-G2 Tox: human, 3 h
How it was run: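 HEP-G2 cells were treated with compound for 3 h at 37 °C in MEM/0.5% BSA containing 10 μCi/ml D-(3-^3H(N))-glucose, then lysed with TCA; ^3H-water released via the respiratory chain was recovered by evaporation at 50 °C and counted. Values are corrected for non-specific and basal counts, expressed as % of maximal FCCP or DNP stimulation, and EC50 is from a variable-slope sigmoidal fit.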

isolated mitochondria = assay: Assay (II): effect of chemical uncouplers on mitochondrial respiration using isolated mitochondria (oxygen consumption); format: biochemical
Description: Assay (II)—The Effect of Chemical Uncouplers on Mitochondrial Respiration Using Isolated Mitochondria.
This assay is used to investigate if the increase in glucose utilisation caused by the test compounds observed in the glucose utilisation assay is due to an increase in the respiration of the mitochondria. This is done by measuring oxygen consumption in isolated mitochondria.
A Clark oxygen electrode is used to determine the oxygen consumption. The isolated mitochondria are added to medium containing oxygen and nutrients (e.g. Succinate) and the rate of oxygen consumptions is measured, when stabilized a small amount of ADP is added to increase the respiration and an increase in the rate of oxygen consumption is measured. When the rate of oxygen consumption again has stabilized the test compound is added and a further increase in oxygen consumption is seen. This experiment is done with and without the addition of oligomycin which is an inhibitor of the ATP-synthase. Finally, the test compound is examined without adding ADP. If the test compound stimulates the rate of oxygen consumption in all setups, it is regarded as a chemical uncoupler.

FSK-4 cells = assay: Assay (IV): Glucose utilisation in FSK-4 cells; format: cell-based; details: for EC50: read-out: FSK4 EC50; for Emax: read-out: FSK4 Emax (% of FCCP)
[1] = humans; cited from earlier work
[2] = HepG2, read-out: HEP-G2 Emax (% of FCCP)
[3] = HepG2, read-out: HEP-G2 Emax (μM)
[4] = read-out: HEP-G2 EC50, HEP-G2 cells, glucose utilisation, 3 hours incubation
[5] = HepG2, read-out: HEP-G2 Emax (% of FCCP), HEP-G2 cells, maximal stimulation relative to FCCP
[6] = HepG2, read-out: HEP-G2 Emax (μM), HEP-G2 cells, concentration at which Emax is achieved (CEmax)
[7] = FSK-4 cells, glucose utilisation, 24 hours incubation
[8] = FSK-4 cells, maximal efficacy relative to FCCP

Row | SMILES | EC50 (HEP-G2 cells; read-out: HEP-G2 EC50) [µM] | Emax (HEP-G2 cells; [2]) [%] | EC (Emax) (HEP-G2 cells; [3]) [µM] | Mito State-4 (isolated mitochondria) | EC50 (FSK-4 cells; 24 h) [µM] | Emax (FSK-4 cells) [%] | lowest dose which could be lethal relative to average dose giving a desired 50% increase in basal metabolic rate [1] | EC50 (HEP-G2 cells; [4]) [µM] | Emax (HEP-G2 cells; [5]) [%] | EC (Emax) (HEP-G2 cells; [6]) [µM] | HEP-G2 Tox (HEP-G2 cells) | EC50 (FSK-4 cells; [7]) [µM] | Emax (FSK-4 cells; [8]) [%]
1 | CC(CCC(=O)O)(c1ccc(O)c([N+](=O)[O-])c1)c1ccc(O)c([N+](=O)[O-])c1 [Example 1, 4,4-Bis-(4-Hydroxy-3-Nitrophenyl)-Valeric Acid] | 40 | 45 | 100 | Ok | – | – | – | – | – | – | – | – | –
2 | CC(C)(C)c1cc(C=C(C#N)C#N)cc(C(C)(C)C)c1O [Example 25, 2,6-Di-t-Butyl-4-(2′,2′-Dicyanovinyl)Phenol, reference compound] | 0.48 | 100 | 10 | Ok | 0.01 | 110 | – | – | – | – | – | – | –
3 | O=[N+]([O-])c1ccc(O)c([N+](=O)[O-])c1 [Example 26, 2,4-Dinitrophenol, reference compound] | 225 | 100 | 500 | Ok | 90 | 95 | twice | – | – | – | – | – | –
4 | CC(C)(C)c1cc(C(=O)Nc2ccc([N+](=O)[O-])cc2Cl)c(O)c(C(C)(C)C)c1 [Example 40, 3,5-Di-Tert-Butyl-N-(2-Chloro-4-Nitro-Phenyl)-2-Hydroxy-Benzamide] | – | – | – | Ok | – | – | – | 0.58 | 105 | 3 | – | – | –
5 | CCOC(=O)/C(=C/c1cc(C(C)(C)C)c(O)c(C(C)(C)C)c1)C(C)=O [Example 69, 2-Acetyl-3-(3,5-Di-Tert-Butyl-4-Hydroxy-Phenyl)-Acrylic Acid Ethyl Ester] | – | – | – | – | – | – | – | 100 | 58 | 300 | Tox 1 mM | 9 | 40
6 | CC(C)(C)c1cc([N+](=O)[O-])cc(C(C)(C)C)c1O [Example 72, 2,6-Di-Tert-Butyl-4-Nitro-Phenol] | 13 | 100 | 100 | Ok | – | – | – | – | – | – | – | – | –
7 | CC(C)(C)c1cc([N+](=O)[O-])cc([N+](=O)[O-])c1O [Example 73, 2-Tert-Butyl-4,6-Dinitro-Phenol] | 7.3 | 70 | 300 | – | – | – | – | – | – | – | – | 7 | 100
8 | CC(C)(C)c1cc(/C=C(\C#N)c2ccccn2)cc(C(C)(C)C)c1O [Example 74, 3-(3,5-Di-Tert-Butyl-4-Hydroxy-Phenyl)-2-Pyridin-2-Yl-Acrylonitrile] | – | – | – | – | – | – | – | 16 | 80 | 100 | – | 15 | 120
9 | CCOP(=O)(OCC)/C(C#N)=C\c1cc(C(C)(C)C)c(O)c(C(C)(C)C)c1 [Example 76, 3-(3,5-Di-Tertbutyl-4-Hydroxybenzylidene)-2-(Diethylphosphonate)-Propenenitrile] | 11 | 90 | 30 | – | – | – | – | – | – | – | – | 3.2 | 150
10 | CC(C)(C)c1cc(/C=C(\C#N)c2ccc(OC(F)(F)F)cc2)cc(C(C)(C)C)c1O [Example 80, 3-(3,5-Di-Tert-Butyl-4-Hydroxy-Phenyl)-2-(4-Trifluoromethoxy-Phenyl)-Acrylonitrile] | – | – | – | – | – | – | – | 8 | 80 | 100 | Tox 0.3 mM | 18 | 100
11 | CC(C)(C)c1cc(/C=C(\C#N)c2ccc(C(F)(F)F)cc2)cc(C(C)(C)C)c1O [Example 81, 3-(3,5-Di-Tert-Butyl-4-Hydroxy-Phenyl)-2-(4-Trifluoromethyl-Phenyl)-Acrylonitrile] | 7 | 130 | 100 | – | – | – | – | – | – | – | – | 7 | 140
12 | CCOC(=O)/C(C#N)=C(/C)c1cc(C(C)(C)C)c(O)c(C(C)(C)C)c1 [Example 82, 2-Cyano-3-(3,5-Di-Tert-Butyl-4-Hydroxy-Phenyl)-But-2-Enoic Acid Ethyl Ester] | – | – | – | – | – | – | – | 10 | 100 | 30 | – | 11 | 90
